1 compound from ChEMBL document CHEMBL1129670, “Synthesis and structure-activity relationships of N-propyl-N-(4-pyridinyl)-1H-indol-1-amine (besipirdine) and related analogs as potential therapeutic agents for Alzheimer's disease” (J Med Chem, 1996) can be followed below.

As a reminder, the IC50 is the concentration that inhibits the measured activity by half. Read a low IC50 as inhibition by little substance.

The target in experiment [1] is T1, Muscarinic acetylcholine receptor M1 (Rattus norvegicus, UniProt P08482).
T1 sequence (P08482 whole entry): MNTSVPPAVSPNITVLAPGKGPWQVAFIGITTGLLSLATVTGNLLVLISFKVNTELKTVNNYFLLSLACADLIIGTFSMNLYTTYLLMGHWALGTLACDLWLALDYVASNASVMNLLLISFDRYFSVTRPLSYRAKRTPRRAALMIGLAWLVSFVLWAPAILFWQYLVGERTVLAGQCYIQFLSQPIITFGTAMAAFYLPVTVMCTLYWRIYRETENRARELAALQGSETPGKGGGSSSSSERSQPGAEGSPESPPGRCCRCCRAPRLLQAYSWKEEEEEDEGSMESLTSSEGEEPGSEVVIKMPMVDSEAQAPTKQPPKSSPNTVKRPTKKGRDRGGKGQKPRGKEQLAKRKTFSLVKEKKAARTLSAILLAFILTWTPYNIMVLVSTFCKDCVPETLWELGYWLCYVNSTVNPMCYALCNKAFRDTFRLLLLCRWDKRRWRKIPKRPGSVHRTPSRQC
Description: Inhibitory activity against [3H]pirenzepine binding to muscarinic M1 receptor in rat cortex.

Experiment [2] has as its target D(2) dopamine receptor (Rattus norvegicus, UniProt P61169). Description: Inhibitory activity against [3H]spiroperidol bingind to Dopamine receptor D2 in rat striatum. It counts as tissue-based.
The species named for experiment [3] is Rattus norvegicus. Description: Inhibitory activity against [3H]norepinephrine (NE) uptake in rat hypothalamus. The experiment is classed as functional.
Experiment [4] is filed under the species Mus musculus. Conditions: dose 0.63 mg/kg; route subcutaneous.
Description: Antagonistic activity against Scopolamine induced behavioral deficits in mice at dose 0.63 mg/kg sc
Experiment [5] has as its target T2, Muscarinic acetylcholine receptor M2 (Rattus norvegicus, UniProt P10980).
T2 sequence (P10980 whole entry): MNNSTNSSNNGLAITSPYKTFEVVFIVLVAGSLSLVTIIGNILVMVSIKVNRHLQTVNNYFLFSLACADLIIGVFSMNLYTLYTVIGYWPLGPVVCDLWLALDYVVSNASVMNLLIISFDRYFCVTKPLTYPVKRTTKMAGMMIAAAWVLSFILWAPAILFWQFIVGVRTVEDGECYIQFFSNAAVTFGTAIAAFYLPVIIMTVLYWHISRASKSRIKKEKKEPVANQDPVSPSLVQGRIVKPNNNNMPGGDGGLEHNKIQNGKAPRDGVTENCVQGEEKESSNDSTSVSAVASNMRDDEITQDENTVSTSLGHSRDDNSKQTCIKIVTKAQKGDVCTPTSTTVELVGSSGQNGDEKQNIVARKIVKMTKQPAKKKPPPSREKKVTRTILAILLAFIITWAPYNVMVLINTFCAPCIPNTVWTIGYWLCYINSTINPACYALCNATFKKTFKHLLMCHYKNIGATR
The experiment can be described thus: Inhibitory activity against [3H]N-methyl-scopolamine in rat Muscarinic acetylcholine receptor M2 cerebellum in the presence GPP(NH)P. It counts as tissue-based.

Experiment [6] concerns the target 5-hydroxytryptamine receptor 1B (Rattus norvegicus, UniProt P28564). Description: Inhibitory activity against [3H]5-HT binding to 5-HT1B receptor in rat striatum. It counts as tissue-based.
Experiment [7] has as its target Serotonin 2 (5-HT2) receptor (Rattus norvegicus, UniProt P30994+P08909+P14842). Description: Inhibitory activity against [3H]spiroperidol binding to 5-HT2 receptor in rat cortex.
For experiment [8], the species on record is Rattus norvegicus. The experiment can be described thus: Inhibitory activity against [3H]dopamine uptake in rat striatum. It counts as functional.

Sequence of 5-hydroxytryptamine receptor 1B (P28564 whole entry): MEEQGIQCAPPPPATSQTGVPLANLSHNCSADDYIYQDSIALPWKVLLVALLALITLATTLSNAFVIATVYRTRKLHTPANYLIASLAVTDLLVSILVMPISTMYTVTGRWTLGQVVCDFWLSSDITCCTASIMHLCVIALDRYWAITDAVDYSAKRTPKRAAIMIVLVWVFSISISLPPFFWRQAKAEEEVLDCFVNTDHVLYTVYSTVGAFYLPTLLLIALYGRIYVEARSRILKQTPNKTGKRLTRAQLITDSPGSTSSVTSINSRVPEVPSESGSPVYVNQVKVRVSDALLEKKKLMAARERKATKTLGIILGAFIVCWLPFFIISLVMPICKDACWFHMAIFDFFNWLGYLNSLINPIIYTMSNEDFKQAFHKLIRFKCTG
Sequence of D(2) dopamine receptor (P61169 whole entry): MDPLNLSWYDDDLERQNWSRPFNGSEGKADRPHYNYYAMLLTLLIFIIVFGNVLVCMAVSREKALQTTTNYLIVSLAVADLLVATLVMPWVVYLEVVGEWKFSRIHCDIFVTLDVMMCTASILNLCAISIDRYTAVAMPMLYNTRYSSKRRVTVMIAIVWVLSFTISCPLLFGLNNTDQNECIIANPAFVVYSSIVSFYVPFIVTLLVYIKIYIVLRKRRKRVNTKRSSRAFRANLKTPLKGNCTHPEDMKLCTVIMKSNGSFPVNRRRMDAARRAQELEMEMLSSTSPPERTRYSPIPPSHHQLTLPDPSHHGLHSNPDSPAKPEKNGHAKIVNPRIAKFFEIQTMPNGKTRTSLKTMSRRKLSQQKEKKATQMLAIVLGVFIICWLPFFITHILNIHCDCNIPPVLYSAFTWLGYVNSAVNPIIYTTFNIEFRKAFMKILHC

For `CCCN(c1ccncc1)n1ccc2ccccc21` [BESIPIRDINE], the IC50 in experiment [1] is 1300 nM; in experiment [2], greater than 20000 nM; in experiment [3], 270 nM; in experiment [5], 650 nM; in experiment [6], greater than 20000 nM; in experiment [7] it was greater than 20000 nM. This compound also registered a half-maximal inhibitory concentration (IC50) in experiment [8] of 410 nM. Also, in experiment [4], the Response was determined as 40%.
